From US10208007B2, “Use of strigolactones and strigolactone analogs for treating proliferative conditions” (The State of Israel, Ministry of Agriculture & Rural …, priority 2011, dated 2019)

How the values were obtained:
MCF-7 cells = assay: Stability in aqueous solution (media, activity on MCF-7 by XTT); assay type: physicochemical, human; details: stored at 4° C. for 3 days
Procedure: To assess strigolactone analogs stability in aqueous solution, each strigolactone analog was diluted to the desired concentration in media and stored at 4° C. for 3 days, at which time the strigolactone analog containing media was overlayed onto MCF-7 cells seeded into 96 well plates in phenol free DMEM supplemented with 5% charcoal stripped serum. After 3 days growth and viability was assessed (XTT, ATCC) and results compared to cells treated with freshly diluted strigolactone analog (FIG. 15) (absorbance readings presented as % of controls. Average+SD). […] For this reason all strigolactone analogs were diluted fresh from acetone stocks into media to desired concentrations and overlayed onto cells within 1 hour. Where necessary, media was refreshed every 3 days.

DU145 = assay: Cell cycle analysis with strigolactone removal; assay type: cell-based, human; details: for G2/M fraction: 24 hours, from 18%; for G2/M fraction 48 hours following removal: vehicle control 28.5%
Procedure: Adherent cells were trypsinyzed, washed twice with PBS and filtered through a […] cell sieve. DNA content was assessed by flow cytometry. Cells were seeded at densities of 1.5×10^5 cells (MDA-MB-231, MDA-MB-436), or 4×10^5 cells (MCF-7 and MCF10A), or 2×10^5 cells (SW480, HT-29), or 5×10^5 cells (HCT116), per well in DMEM with 10% FBS in 6-well plate culture dishes. […] After 48 hours, cells were washed twice with PBS (pH 7.4), centrifuged at 360 g for 10 minutes at 4° C., and fixed in chilled ethanol (70%; v/v in PBS) with gentle vortex mixing. To determine their DNA contents, the cells were stained with 40 μg/ml propidium iodide (hereinafter PI) and analyzed using a FACSCalibur flow cytometer and CellQuest analysis software (Becton Dickinson, San Jose, Calif.). Where phosphoHistone-H3 staining was carried out, cells were incubated with polyclonal antibody against phosphoHistone H3 and then with secondary Goat anti-rabbit IgG-conjugated to FITC prior to PI staining.
To determine whether the strigolactone analogs induced G2 arrest, is also reversible upon strigolactone removal, DU145 cells were treated with MEB-55 for 24 hours, washed twice in PBS and then over-layed with fresh growth media minus MEB-55 and incubated for a further 48 hours (FIG. 17G).

Cyclin B1 mRNA = assay: Quantitative Real-time PCR of Cyclin B1 mRNA; assay type: cell-based, human
Procedure: Primers were designed using PrimerQuest software (Integrated DNA Technologies). RNA was extracted using Trizol (Invitrogen, Carlsbad, Calif., USA) using the manufacturer's protocol. 1 μg RNA was reverse-transcribed in a total volume of 20 μl using the Superscript First strand cDNA synthesis kit (Invitrogen). PCR was performed in triplicate using an ABI-Prism 7900 instrument (Applied Biosystems, Foster City, Calif.) and SYBR Green I detection (Applied Biosystems) according to the manufacturer's protocol. The expression of each target gene was normalized to the expression of GAPDH RNA and is presented as the ratio of the target gene to GAPDH RNA, expressed as 2-ΔCt, where Ct is the threshold cycle and ΔCt=Ct Target−Ct GAPDH.
No change in cyclin B1 levels were detected at earlier time points. The dephosphorylation of Cdk1 (Cdc2) at Thr14 is a critical event for its activation, permitting mitotic entry. Cdk1 protein levels remained unaltered, as did pT14Cdc2 levels (FIG. 17B). Quantitative Real-time PCR was carried out to determine whether Cyclin B1 inhibition was partially at the transcriptional level.

ALDH1 = assay: Aldefluor ALDH expression; assay type: cell-based, human; details: MCF-7 primary mammospheres; reduced from 6%
Procedure: MCF-7 mammospheres were trypsinized, gently vortexed and passed through a 40 uM cell filter to produce single cell suspensions. Cells (5×10^5) were washed and re-suspended in growth media (Lonza). To identify the Aldefluor-stained cell population with ALDH1 enzymatic activity, the Aldefluor kit (Stem Cell Technologies), which is designed for optimal identification and isolation of stem cells through specific interaction with human ALDH1 was used. Briefly, cells were suspended in Aldefluor assay buffer containing uncharged ALDH1-substrate, BODIPY-aminoacetaldehyde (BAAA), and incubated for 45 min at 37° C., with gently vortexing every 15 min. BAAA is taken up by living cells through passive diffusion and then converted by intracellular ALDH into a negatively charged reaction product BODIPY-aminoacetate, which is retained inside cells expressing high levels of ALDH1, causing the cells to become brightly fluorescent. Fluorescent ALDH1-expressing cells were detected in the green fluorescence channel (520-540 nm) of a FACScan instrument (BD Biosciences). […] PI (Sigma) fluorescence was detected using the orange fluorescence channel. Cells incubated with BAAA and DEAB were used to establish the baseline fluorescence of cells and ALDH1-positive fraction. Data were analyzed by using Cell Quest software (BD Biosciences). […]

In the case of CC1=CC(O/C=C2\Cc3c(n(C)c4ccccc34)C2=O)OC1=O (racemic) [EG-5, (±) (2E)-4-methyl-2-(4-methyl-5-oxo-2,5-dihydrofuran-2-yloxymethylene)-1,4-dihydro-2H-cyclopenta[b]indol-3-one], the “Stability in aqueous solution: activity versus freshly diluted analog” value (MCF-7 cells) is reported as “completely failed to inhibit MCF-7 growth”.

With CC1=CC(O/C=C2\Cc3c(n(C)c4cc(-c5cccs5)ccc34)C2=O)OC1=O (racemic) [MEB-55, (±) 2E-4-methyl-2-(4-methyl-5-oxo-2,5-dihydrofuran-2-yloxymethylene)-6-thiophen-2-yl-1,4-dihydro-2H-cyclopenta[b]indol-3-one] the G2/M fraction (DU145; DU145, 5 ppm) was 46%, the “G2/M fraction 48 hours following removal” value (DU145; DU145, 5 ppm) was 29% and the G2/M fraction (DU145; DU145, 10 ppm) was 50%. The “G2/M fraction 48 hours following removal” value (DU145; DU145, 10 ppm) was 29%, the “Cyclin B1 mRNA compared to vehicle controls” value (Cyclin B1 mRNA; A549, 10 ppm) was “two fold decrease” and the “Cyclin B1 mRNA compared to vehicle controls” value (Cyclin B1 mRNA; HCT116, 10 ppm) was “two fold decrease”.

For CC1=C[C@H](O/C=C2/C(=O)O[C@@H]3c4ccccc4C[C@H]23)OC1=O (relative stereo) [GR-24, (3aR*,8bS*,E)-3-(((R*)-4-methyl-5-oxo-2,5-dihydrofuran-2-yloxy)methylene)-3,3a,4,8b-tetrahydro-2H-indeno[1,2-b]furan-2-one], the “ALDH activity (ALDH positive cells) after treatment” value (ALDH1) was 2%.
